Measured values published in patent US4447455A, “Oral urolithiasis remedy” (Madaus and Company, priority 1982, dated 1984).
“Also recorded” adds a separate entry of the source.

Tests used:
[1] = acute toxicity / tolerability in the rat; type: in vivo; conditions: alizarin, up to 400 mg/kg
[2] = in vitro crystallization of calcium oxalate
oxalate urolithiasis = assay: therapeutic use in oxalate urolithiasis (general statements); type: in vivo, human; conditions: general statement
[3] = overall summary of pharmacological and toxicological tests; type: in vivo
[4] = acute toxicity / tolerability in the mouse; type: in vivo; conditions: alizarin, one gram per kilogram
[5] = test system: edema of the paws of rats; assay: anti-inflammatory action: edema of the paws induced by viscarin-carrageenin; type: in vivo, rat; conditions: AMDK 600 mg/kg p.o.; for Edema volume: 10 animals
Procedure: The possibility of any effect on inflammatory reactions was tested on edema of the paws of rats (groups of ten rats each) induced by viscarin-carrageenin. […] The measurement of the course of the edema was performed at 3, 5, 7 and 24 hours after the edematization. […] Where the variances between the experimental and control groups were unequal, the more rigorous t test (according to SNEDECOR) was applied for the judgment.

Row | Molecule | tolerance of acute administration [1] | action on the crystallization of calcium oxalate [2] | effect on the formation of stones (oxalate urolithiasis) | effectiveness in treatment of urolithiasis (oxalate urolithiasis) | tolerance (oxalate urolithiasis) | tolerance in the acute toxicity test [3] | tolerance of acute administration [4] | Percentage of inhibition (edema) ([5]; 3 hours after edematization) [Percentage] | Edema volume ([5]; 3 hours after edematization) [mL] | Percentage of inhibition (edema) ([5]; 5 hours after edematization) [Percentage] | Edema volume ([5]; 5 hours after edematization) [mL] | Percentage of inhibition (edema) ([5]; 7 hours after edematization) [Percentage] | Edema volume ([5]; 7 hours after edematization) [mL] | Percentage of inhibition (edema) ([5]; 24 hours after edematization) [Percentage] | Edema volume ([5]; 24 hours after edematization) [mL]
1 | O=C1c2ccccc2C(=O)c2c1ccc(O)c2O [alizarin] | tolerated without producing symptoms | inhibiting action on the crystallization of calcium oxalate | decided inhibitive effect on the formation of stones | decidedly effective | easily tolerated; also recorded: very well tolerated | extremely well tolerated | tolerated without producing symptoms | – | – | – | – | – | – | – | –
2 | Sodium escinate | – | – | – | – | – | – | – | 41.4 | 46.5 | 37.2 | 50.7 | 39.1 | 46.6 | 40.9 | 14.9
